Source: ChEMBL document CHEMBL1152560, “Substituted 2-arylbenzothiazoles as kinase inhibitors: hit-to-lead optimization” (Bioorg Med Chem, 2009)

Legend:
[1] = target: Casein kinase I isoform delta (Homo sapiens) (UniProt P48730); assay: Residual activity of CK1delta at 0.1 uM by microplate scintillation counting
[2] = target: T1, Testis-specific serine/threonine-protein kinase 2 (Homo sapiens) (UniProt Q96PF2); assay: Residual activity of TSK2 at 1 uM by microplate scintillation counting
T1 sequence (whole entry): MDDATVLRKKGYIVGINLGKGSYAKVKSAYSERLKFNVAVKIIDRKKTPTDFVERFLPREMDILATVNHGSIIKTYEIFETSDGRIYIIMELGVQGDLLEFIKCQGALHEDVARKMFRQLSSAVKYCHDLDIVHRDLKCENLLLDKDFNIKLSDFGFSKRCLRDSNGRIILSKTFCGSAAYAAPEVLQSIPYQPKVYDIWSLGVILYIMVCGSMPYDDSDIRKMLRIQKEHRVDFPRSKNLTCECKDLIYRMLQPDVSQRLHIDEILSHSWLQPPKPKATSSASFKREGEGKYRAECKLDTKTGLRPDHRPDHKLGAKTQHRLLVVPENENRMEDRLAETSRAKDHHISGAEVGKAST

[3] = target: T2, Tyrosine-protein kinase ITK/TSK (Homo sapiens) (UniProt Q08881); assay: Residual activity of ITK at 10 uM by microplate scintillation counting
T2 sequence (whole entry): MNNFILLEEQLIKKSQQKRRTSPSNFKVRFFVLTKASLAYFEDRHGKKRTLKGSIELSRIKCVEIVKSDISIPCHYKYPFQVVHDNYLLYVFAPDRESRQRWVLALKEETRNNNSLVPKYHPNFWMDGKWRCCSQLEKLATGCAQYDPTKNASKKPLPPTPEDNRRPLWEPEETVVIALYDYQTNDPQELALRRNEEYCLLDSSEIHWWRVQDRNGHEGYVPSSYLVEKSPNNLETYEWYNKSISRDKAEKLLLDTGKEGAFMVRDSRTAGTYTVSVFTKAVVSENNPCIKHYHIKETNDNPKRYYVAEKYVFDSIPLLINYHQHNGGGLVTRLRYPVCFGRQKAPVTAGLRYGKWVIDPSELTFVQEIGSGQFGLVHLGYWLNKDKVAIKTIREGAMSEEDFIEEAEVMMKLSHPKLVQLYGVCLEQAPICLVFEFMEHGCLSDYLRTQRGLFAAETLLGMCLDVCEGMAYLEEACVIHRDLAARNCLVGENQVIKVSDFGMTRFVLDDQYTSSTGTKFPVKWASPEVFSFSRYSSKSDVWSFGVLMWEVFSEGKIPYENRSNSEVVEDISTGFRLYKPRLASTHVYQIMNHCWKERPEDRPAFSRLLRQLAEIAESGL

[4] = target: T3, Tyrosine-protein kinase ZAP-70 (Homo sapiens) (UniProt P43403); assay: Residual activity of ZAP70 at 1 uM by microplate scintillation counting
T3 sequence (whole entry): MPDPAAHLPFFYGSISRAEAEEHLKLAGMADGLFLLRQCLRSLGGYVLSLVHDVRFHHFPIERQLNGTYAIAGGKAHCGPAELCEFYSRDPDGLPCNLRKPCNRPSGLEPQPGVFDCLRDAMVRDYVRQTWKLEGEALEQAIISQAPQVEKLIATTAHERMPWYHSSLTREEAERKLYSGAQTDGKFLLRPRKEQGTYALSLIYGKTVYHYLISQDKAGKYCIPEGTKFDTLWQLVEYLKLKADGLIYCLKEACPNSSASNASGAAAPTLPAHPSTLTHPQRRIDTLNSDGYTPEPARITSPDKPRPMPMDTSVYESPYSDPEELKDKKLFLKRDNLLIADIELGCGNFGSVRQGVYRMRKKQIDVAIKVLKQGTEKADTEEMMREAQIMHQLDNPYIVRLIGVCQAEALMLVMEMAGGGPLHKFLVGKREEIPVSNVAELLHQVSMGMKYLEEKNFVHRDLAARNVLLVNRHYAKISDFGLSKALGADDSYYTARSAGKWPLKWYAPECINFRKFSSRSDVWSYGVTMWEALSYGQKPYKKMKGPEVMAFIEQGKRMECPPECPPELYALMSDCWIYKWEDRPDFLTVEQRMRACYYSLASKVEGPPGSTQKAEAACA

[5] = target: Cyclin-dependent kinase 2/cyclin A (Homo sapiens) (UniProt P24941+P20248+P78396); assay: Residual activity of CDK2/Cyclin A at 0.1 uM by microplate scintillation counting; format: protein-complex assay
[6] = target: T4, Dual specificity protein kinase TTK (Homo sapiens) (UniProt P33981); assay: Residual activity of TTK at 10 uM by microplate scintillation counting
T4 sequence (whole entry): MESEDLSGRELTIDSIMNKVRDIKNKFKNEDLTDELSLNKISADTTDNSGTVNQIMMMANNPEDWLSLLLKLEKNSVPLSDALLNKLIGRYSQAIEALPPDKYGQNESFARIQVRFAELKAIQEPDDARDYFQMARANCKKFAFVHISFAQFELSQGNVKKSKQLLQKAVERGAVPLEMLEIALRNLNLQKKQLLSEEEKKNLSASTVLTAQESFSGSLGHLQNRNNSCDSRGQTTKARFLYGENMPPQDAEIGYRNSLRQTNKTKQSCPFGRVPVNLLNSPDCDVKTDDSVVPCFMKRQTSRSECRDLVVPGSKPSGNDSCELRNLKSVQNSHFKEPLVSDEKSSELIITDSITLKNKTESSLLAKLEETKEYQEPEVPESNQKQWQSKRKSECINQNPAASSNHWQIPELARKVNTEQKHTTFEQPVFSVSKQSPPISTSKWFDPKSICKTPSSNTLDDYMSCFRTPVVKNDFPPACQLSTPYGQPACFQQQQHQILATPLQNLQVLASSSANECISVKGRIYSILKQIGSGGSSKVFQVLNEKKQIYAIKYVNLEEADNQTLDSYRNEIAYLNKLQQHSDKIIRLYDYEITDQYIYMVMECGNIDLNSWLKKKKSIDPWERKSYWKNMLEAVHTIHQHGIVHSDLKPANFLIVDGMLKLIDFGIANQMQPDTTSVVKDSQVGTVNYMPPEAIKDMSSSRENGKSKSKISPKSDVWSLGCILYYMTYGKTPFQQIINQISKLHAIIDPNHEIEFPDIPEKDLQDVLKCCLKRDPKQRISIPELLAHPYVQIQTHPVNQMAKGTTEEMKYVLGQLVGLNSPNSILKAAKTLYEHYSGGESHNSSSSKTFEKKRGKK

Sequence of Casein kinase I isoform delta (Homo sapiens) (P48730 whole entry, looked up, canonical isoform): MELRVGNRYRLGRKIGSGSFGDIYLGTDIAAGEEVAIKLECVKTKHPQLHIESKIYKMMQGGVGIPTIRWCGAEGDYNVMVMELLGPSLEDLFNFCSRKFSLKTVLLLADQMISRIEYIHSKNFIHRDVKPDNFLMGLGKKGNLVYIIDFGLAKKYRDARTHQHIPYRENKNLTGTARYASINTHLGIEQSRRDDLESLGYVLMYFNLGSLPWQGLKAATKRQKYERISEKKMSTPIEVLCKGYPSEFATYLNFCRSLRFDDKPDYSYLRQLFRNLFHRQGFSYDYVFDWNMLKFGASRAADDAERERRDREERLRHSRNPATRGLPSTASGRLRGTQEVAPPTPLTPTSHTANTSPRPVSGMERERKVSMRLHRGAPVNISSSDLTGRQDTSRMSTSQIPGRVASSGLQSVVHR

| SMILES | residual activity [1] | residual activity [2] | residual activity [3] | residual activity [4] | residual activity [5] | residual activity [6] |
| --- | --- | --- | --- | --- | --- | --- |
| COc1cc2c(Oc3ccc(-c4nc5ccccc5s4)cc3)ncnc2cc1OCCCN1CCN(C)CC1 | 94% | 92% | 99% | 116% | 94% | 69% |
| COc1cc2c(Oc3ccc(-c4nc5ccccc5s4)cc3)ncnc2cc1OCCCN1CCCC1 | 95% | 108% | 117% | 145% | 96% | 84% |
| COc1cc2c(Oc3ccc(-c4nc5ccccc5s4)cc3F)ncnc2cc1OCCCN1CCN(C)CC1 | 98% | 98% | 63% | 120% | 100% | 70% |
